Measured values from PubChem BioAssay (NCI).
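These data come from cells grown in 96-well plates and exposed to compound for 48 hours at five concentrations. Abbreviation: GI50, concentration required for 50% inhibition of growth. TGI: total growth inhibition.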

Columns and labels:
Assay in all cases: NCI anticancer screen, dose series, 48 h
786-0 renal = test system: 786-0 renal
A498 renal = test system: A498 renal
A549 NSCLC = test system: A549 NSCLC
ACHN renal = test system: ACHN renal
BT-549 breast = test system: BT-549 breast
CAKI-1 renal = test system: CAKI-1 renal
CCRF-CEM leukemia = test system: CCRF-CEM leukemia
COLO 205 colon = test system: COLO 205 colon
DU-145 prostate = test system: DU-145 prostate
EKVX NSCLC = test system: EKVX NSCLC
HCC-2998 colon = test system: HCC-2998 colon
HCT-116 colon = test system: HCT-116 colon
HCT-15 colon = test system: HCT-15 colon
HL-60(TB) leukemia = test system: HL-60(TB) leukemia
HOP-62 NSCLC = test system: HOP-62 NSCLC
HOP-92 NSCLC = test system: HOP-92 NSCLC
HS 578T breast = test system: HS 578T breast
HT29 colon = test system: HT29 colon
IGROV1 ovarian = test system: IGROV1 ovarian
K-562 leukemia = test system: K-562 leukemia
KM12 colon = test system: KM12 colon
LOX IMVI melanoma = test system: LOX IMVI melanoma
M14 melanoma = test system: M14 melanoma
MALME-3M melanoma = test system: MALME-3M melanoma
MCF7 breast = test system: MCF7 breast
MDA-MB-231 breast = test system: MDA-MB-231 breast
MDA-MB-435 = test system: MDA-MB-435
MOLT-4 leukemia = test system: MOLT-4 leukemia
NCI-H226 lung = test system: NCI-H226 lung
NCI-H23 lung = test system: NCI-H23 lung
NCI-H460 lung = test system: NCI-H460 lung
NCI-H522 lung = test system: NCI-H522 lung
NCI/ADR-RES ovarian = test system: NCI/ADR-RES ovarian
OVCAR-3 ovarian = test system: OVCAR-3 ovarian
OVCAR-4 ovarian = test system: OVCAR-4 ovarian
OVCAR-5 ovarian = test system: OVCAR-5 ovarian
OVCAR-8 ovarian = test system: OVCAR-8 ovarian
PC-3 prostate = test system: PC-3 prostate
RPMI-8226 leukemia = test system: RPMI-8226 leukemia
RXF 393 renal = test system: RXF 393 renal
SF-268 CNS = test system: SF-268 CNS
SF-295 CNS = test system: SF-295 CNS
SF-539 CNS = test system: SF-539 CNS
SK-MEL-2 melanoma = test system: SK-MEL-2 melanoma
SK-MEL-28 melanoma = test system: SK-MEL-28 melanoma
SK-MEL-5 melanoma = test system: SK-MEL-5 melanoma
SK-OV-3 ovarian = test system: SK-OV-3 ovarian
SN12C renal = test system: SN12C renal
SNB-19 CNS = test system: SNB-19 CNS
SNB-75 CNS = test system: SNB-75 CNS
SR leukemia = test system: SR leukemia
SW-620 colon = test system: SW-620 colon
T-47D breast = test system: T-47D breast
TK-10 renal = test system: TK-10 renal
U251 CNS = test system: U251 CNS
UACC-257 melanoma = test system: UACC-257 melanoma
UACC-62 melanoma = test system: UACC-62 melanoma
UO-31 renal = test system: UO-31 renal

CC1(C)N=C(N)N=C(N)N1c1ccc(OCCCNC(=O)Nc2ccc(S(=O)(=O)F)cc2)c(Cl)c1
GI50 (786-0 renal): 0.417 µM
TGI (786-0 renal): > 100 µM
GI50 (A498 renal): 4.57 µM
TGI (A498 renal): 99.4 µM
GI50 (A549 NSCLC): 0.0732 µM
TGI (A549 NSCLC): > 100 µM
GI50 (ACHN renal): 4.45 µM
TGI (ACHN renal): > 100 µM
GI50 (BT-549 breast): 11.5 µM
TGI (BT-549 breast): > 100 µM
GI50 (CAKI-1 renal): 17.9 µM
TGI (CAKI-1 renal): > 95 µM
GI50 (CCRF-CEM leukemia): 0.208 µM
TGI (CCRF-CEM leukemia): > 100 µM
GI50 (COLO 205 colon): 0.854 µM
TGI (COLO 205 colon): > 100 µM
GI50 (DU-145 prostate): 0.277 µM
TGI (DU-145 prostate): > 100 µM
GI50 (EKVX NSCLC): 0.874 µM
TGI (EKVX NSCLC): > 100 µM
GI50 (HCC-2998 colon): 0.832 µM
TGI (HCC-2998 colon): > 100 µM
GI50 (HCT-116 colon): 0.0613 µM
TGI (HCT-116 colon): > 100 µM
GI50 (HCT-15 colon): 6.62 µM
TGI (HCT-15 colon): > 100 µM
GI50 (HL-60(TB) leukemia): 0.113 µM
TGI (HL-60(TB) leukemia): > 65.3 µM
GI50 (HOP-62 NSCLC): 0.82 µM
TGI (HOP-62 NSCLC): > 100 µM
GI50 (HOP-92 NSCLC): 2.74 µM
TGI (HOP-92 NSCLC): 61.9 µM
GI50 (HS 578T breast): 4.6 µM
TGI (HS 578T breast): > 78.8 µM
GI50 (HT29 colon): 0.1 µM
TGI (HT29 colon): > 100 µM
GI50 (IGROV1 ovarian): 0.281 µM
TGI (IGROV1 ovarian): > 100 µM
GI50 (K-562 leukemia): 0.0497 µM
TGI (K-562 leukemia): > 100 µM
GI50 (KM12 colon): 0.504 µM
TGI (KM12 colon): > 100 µM
GI50 (LOX IMVI melanoma): 0.12 µM
TGI (LOX IMVI melanoma): > 100 µM
GI50 (M14 melanoma): 0.493 µM
TGI (M14 melanoma): > 100 µM
GI50 (MALME-3M melanoma): 2.02 µM
TGI (MALME-3M melanoma): > 100 µM
GI50 (MCF7 breast): 0.238 µM
TGI (MCF7 breast): > 100 µM
GI50 (MDA-MB-231 breast): 3.34 µM
TGI (MDA-MB-231 breast): > 100 µM
GI50 (MDA-MB-435): 0.143 µM
TGI (MDA-MB-435): > 100 µM
GI50 (MOLT-4 leukemia): 0.386 µM
TGI (MOLT-4 leukemia): > 100 µM
GI50 (NCI-H226 lung): 11.2 µM
TGI (NCI-H226 lung): > 100 µM
GI50 (NCI-H23 lung): 0.488 µM
TGI (NCI-H23 lung): > 100 µM
GI50 (NCI-H460 lung): 0.0486 µM
TGI (NCI-H460 lung): > 37.6 µM
GI50 (NCI-H522 lung): 0.79 µM
TGI (NCI-H522 lung): > 100 µM
GI50 (NCI/ADR-RES ovarian): 98.5 µM
TGI (NCI/ADR-RES ovarian): > 100 µM
GI50 (OVCAR-3 ovarian): 1.55 µM
TGI (OVCAR-3 ovarian): > 100 µM
GI50 (OVCAR-4 ovarian): 4.05 µM
TGI (OVCAR-4 ovarian): > 100 µM
GI50 (OVCAR-5 ovarian): 0.419 µM
TGI (OVCAR-5 ovarian): > 100 µM
GI50 (OVCAR-8 ovarian): 0.697 µM
TGI (OVCAR-8 ovarian): > 100 µM
GI50 (PC-3 prostate): 0.165 µM
TGI (PC-3 prostate): > 73 µM
GI50 (RPMI-8226 leukemia): 1.64 µM
TGI (RPMI-8226 leukemia): > 75 µM
GI50 (RXF 393 renal): 12.9 µM
TGI (RXF 393 renal): > 100 µM
GI50 (SF-268 CNS): 0.199 µM
TGI (SF-268 CNS): > 100 µM
GI50 (SF-295 CNS): 0.504 µM
TGI (SF-295 CNS): > 100 µM
GI50 (SF-539 CNS): 1.3 µM
TGI (SF-539 CNS): > 67.4 µM
GI50 (SK-MEL-2 melanoma): 0.79 µM
TGI (SK-MEL-2 melanoma): > 100 µM
GI50 (SK-MEL-28 melanoma): 1.74 µM
TGI (SK-MEL-28 melanoma): > 100 µM
GI50 (SK-MEL-5 melanoma): 0.146 µM
TGI (SK-MEL-5 melanoma): 13.3 µM
GI50 (SK-OV-3 ovarian): 8.83 µM
TGI (SK-OV-3 ovarian): > 100 µM
GI50 (SN12C renal): 0.111 µM
TGI (SN12C renal): > 100 µM
GI50 (SNB-19 CNS): 1.08 µM
TGI (SNB-19 CNS): > 100 µM
GI50 (SNB-75 CNS): 1.02 µM
TGI (SNB-75 CNS): 50 µM
GI50 (SR leukemia): 0.0376 µM
TGI (SR leukemia): > 100 µM
GI50 (SW-620 colon): 0.0778 µM
TGI (SW-620 colon): > 100 µM
GI50 (T-47D breast): 5.65 µM
TGI (T-47D breast): > 100 µM
GI50 (TK-10 renal): 0.907 µM
TGI (TK-10 renal): > 100 µM
GI50 (U251 CNS): 0.211 µM
TGI (U251 CNS): > 100 µM
GI50 (UACC-257 melanoma): 5.11 µM
TGI (UACC-257 melanoma): > 100 µM
GI50 (UACC-62 melanoma): 0.268 µM
TGI (UACC-62 melanoma): > 100 µM
GI50 (UO-31 renal): 69.5 µM
TGI (UO-31 renal): > 100 µM
